Measured values as given in US5747535A, “Selective thrombin inhibitors” (priority 1995, dated 1998).

Columns and labels:
trypsin = molecular target: T1, trypsin (Bos taurus, UniProt P00760); test: biochemical; assay type: biochemical; conditions: 20 μM substrate; read-out: Inhibitory activity for trypsin, Ki
T1 sequence (P00760 24-246): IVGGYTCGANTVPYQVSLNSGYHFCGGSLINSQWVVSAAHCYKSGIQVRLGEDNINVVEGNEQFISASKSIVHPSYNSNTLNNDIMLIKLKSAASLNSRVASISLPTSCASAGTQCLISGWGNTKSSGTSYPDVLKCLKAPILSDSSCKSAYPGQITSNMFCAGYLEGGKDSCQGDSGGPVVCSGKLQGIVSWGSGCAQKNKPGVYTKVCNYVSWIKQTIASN
Procedure: To identify the selectivity for thrombin over trypsin of the compound of the present invention, the inhibitory activity for trypsin of the compound of formula (I) is measured as Ki value according to the same method as the above method for determination of thrombin inhibitory activity, and then the ratio of the activity for trypsin to the activity for thrombin is calculated. In this case, the procedure for determination of inhibitory activity for trypsin is substantially identical to that for thrombin, except that N-benzoyl-Val-Gly-Arg para-nitroanilide hydrochloride is used as the substrate.
As the substrate 20μM solution of N-benzoyl-Val-Gly-Arg-p-nitroanilide hydrochloride was used, and the inhibitor was used in various concnetrations within the range of […]. In addition, trypsin was dissolved in 0.1N HCl, adjusted to the concentration of 45 μg/ml with the said tris buffered solution just before the experiment, and then used in an amount of 40μl. As in the experiment for thrombin, a total volume of the reaction solution was 1.5 ml and the remaining procedure was conducted in the same manner.

bovine thrombin = bovine thrombin (Bos taurus, UniProt P00735); test: biochemical;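 note: bovine thrombin cleaving the chromogenic substrate Chromozym TH, with para-nitroaniline release tracked as absorbance change over time to give initial rates, in Tris buffer at pH 7.8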
From the text: The thrombin inhibitory effect of the compound of formula (I) according to the present invention can be identified by determination of a dissociation constant Ki represented by the following equation according to the known method described in literature [see, Methods in enzymology V. 80,p341-361;Biochemistry 27,p2144-2151 (1988)].
The dissociation constant Ki denotes the degree of dissociation of the enzyme-thrombin inhibitor complex. […] Such dissociation constant can be determined by reacting thrombin with a certain substrate which develops a color when it is hydrolyzed by the action of thrombin, and then measuring the degree of color development as a function of time by means of spectrophotometry.
Chromozym TH is hydrolyzed by thrombin to produce yellow para-nitroaniline. Accordingly, the amount of yellow para-nitroaniline thus produced can be measured as the change of absorbance in the course of time to determine the thrombin inhibitory activity of the compound according to the present invention. That is, the enzyme activity can be determined from the rate of change in absorbance and then can be directly connected with the ability of the thrombin inhibitor to inhibit the enzyme activity (see, Methods in Enzymology, V. 80,p341-361,Biochemistry 27, p2144-2151, 1988).
The ability of the compound according to the present invention to inhibit the thrombin activity was determined as described in the following.
1160 μl of 0.1M tris buffered solution (pH 7.8) containing 150 mM NaCl and 0.1% PEG 8000 (polyethylene glycol, molecular weight about 8,000) was added to a 1.5 ml cuvette. Chromozym TH was dissolved in dimethylsulfoxide(DMSO) in the concentration of 10mM and the resulting solution was diluted with the said tris buffered solution to the concentration of 0.1 mM, which was then used as the substrate solution. 225 μl of 0.1 mM substrate solution thus prepared was added to the cuvette. The inhibitor solution was prepared by dissolving the thrombin inhibitor compound according to the present invention in dimethylsulfoxide in the concentration of 10 mg/ml and then diluting the resulting solution with the said tris buffered solution to the concentration of 0.1 mg/ml, 0.01 mg/ml, 0.001 mg/ml and 0.0001 mg/ml. The resulting inhibitor solution was taken in an amount corresponding to 0 to 10 μg as the inhibitor and then diluted with tris buffered solution to make the total volume of 100 μl which was added to the cuvette.
15 μl of bovine thrombin solution dissolved in above tris buffered solution in the concentration of 0.1 mg/ml was added to the cuvette to initiate the enzyme hydrolysis reaction. The amount of para-nitroaniline produced for 2 minutes from the moment the enzyme is added was monitored by measuring the absorbance at 381 nm. The continuous spectrum of absorbance to reaction time was depicted. The same experiments were conducted for various concentration of the inhibitor to obtain the continuous spectrum.
In each spectrum, the initial velocity Vi was obtained from the slope within initial 30 seconds of the reaction time and then a graph for the reciprocal value of initial velocity(1/Vi) to the inhibitor concentration was depicted. From the graph, the primary equation satisfying the points depicted thereon was obtained and then the value Ki was calculated from the x intercept of the primary equation using the enzyme reaction equation.
The velocity constant Ks was obtained using the same solution in the same concentration as in determination of the value Ki but using the following experimental procedure.

- Ki (trypsin): 3.19 µM
- Ki (bovine thrombin): 0.0038 µM
SMILES: CN(C(=O)[C@H](Cc1ccc(C(=N)NN)cc1)NS(=O)(=O)c1ccc2ccccc2c1)C1CCCC1 [Example 1, (S)-N-cyclopentyl-N-methyl-3-(4-amidrazonophenyl)-2-(2-naphthylsulfonylamino)propionamide]
